Where “and” joins values, the source holds several entries; their conditions need not be identical. Identical values can stand only once.
Assays:
Assay type in all cases: biochemical
RecG⋅DNA(A40:B40) [1] = biological target: T1, RecG⋅DNA(A40:B40) (Thermotoga maritima, UniProt Q9WY48); assay: Single turnover mant fluorescence, excess RecG⋅DNA over mantATP
T1 construct: made in house
T1 sequence (Q9WY48 1-780): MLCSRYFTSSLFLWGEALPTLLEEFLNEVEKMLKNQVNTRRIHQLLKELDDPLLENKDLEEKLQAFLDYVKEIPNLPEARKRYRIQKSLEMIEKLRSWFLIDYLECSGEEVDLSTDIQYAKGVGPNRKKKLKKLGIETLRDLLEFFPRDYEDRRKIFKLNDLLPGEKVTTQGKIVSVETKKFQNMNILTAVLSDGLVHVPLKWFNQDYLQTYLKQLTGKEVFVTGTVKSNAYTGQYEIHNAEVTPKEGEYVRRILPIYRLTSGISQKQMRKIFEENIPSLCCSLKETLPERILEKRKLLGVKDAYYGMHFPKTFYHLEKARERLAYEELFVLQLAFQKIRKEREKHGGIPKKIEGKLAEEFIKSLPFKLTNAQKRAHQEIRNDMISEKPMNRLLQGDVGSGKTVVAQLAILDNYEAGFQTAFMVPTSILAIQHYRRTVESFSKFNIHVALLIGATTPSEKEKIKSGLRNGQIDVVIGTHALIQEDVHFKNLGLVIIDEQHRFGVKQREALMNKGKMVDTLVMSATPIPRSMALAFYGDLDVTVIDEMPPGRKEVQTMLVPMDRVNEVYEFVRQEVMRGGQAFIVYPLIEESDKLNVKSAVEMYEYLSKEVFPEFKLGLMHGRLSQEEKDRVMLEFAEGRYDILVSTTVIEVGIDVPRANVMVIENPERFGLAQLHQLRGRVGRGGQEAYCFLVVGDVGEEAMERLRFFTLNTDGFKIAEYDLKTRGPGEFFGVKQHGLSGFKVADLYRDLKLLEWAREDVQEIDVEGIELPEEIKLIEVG
Description: Extra information relating to changes in a single ATPase cycle can be obtained by mixing excess RecG⋅DNA(A40:B40) with mantATP (Figure 4A). […] The first change in fluorescence is presumably due to binding. After fitting to a double exponential, the observed rate constant for the initial change was linearly dependent on RecG concentration over the small range possible (0.5 µM –2.5 µM), limited by protein precipitation at higher concentrations. Due to the low concentrations, a hyperbolic dependence would not be observed. The observed rate constant of the second increase in fluorescence, 0.22 (±0.05) s^−1 (Figure 4A), was independent of RecG concentration. This second phase is likely to be due to the cleavage step, leading to the formation of bound mantADP.
(§1) Figure 4 Kinetic measurement of mantATP with excess of RecG and DNA: binding, hydrolysis and Pi release. The concentrations for all experiments were 0.5 µM mantATP, 2.5 µM RecG, 5 µM DNA (A40:B40) and 10 µM MDCC-PBP (for Pi measurement). All measurements were carried out at 20°C in the buffer described in Materials and Methods. (A) Time course of mant fluorescence (solid line), mantADP formation (circles) and Pi release (dashed line), measured as described in materials and methods. […] (B) Simulation of these time courses, based upon a global model for a single turnover of mantATP as described in the text. (C) The time course of mant fluorescence upon mixing 0.5 µM mantATP and 2.5 µM RecG with 5 µM DNA junction (A40:B40) after a first mixing of 5 µM RecG and 1 µM mantATP and aging for 1 s.
(§2) Stopped-flow experiments were performed in a HiTech SF61DX2 apparatus (TgK Scientific Ltd, Bradford-on-Avon, UK) with a mercury-xenon light source and HiTech KinetAsyst 3 or Kinetic Studio 1 software. For MDCC-PBP fluorescence, the excitation wavelength used was 436 nm and a 455 nm cut-off filter (Schott glass) used to collect emitted light. The signal was calibrated using known concentrations of Pi. The solutions contained the Pi mop, to minimize phosphate contamination and comprising 0.01 unit ml^−1 bacterial purine nucleoside phosphorylase and 200 µM 7-methylguanosine. For mant fluorescence, 366 nm was used to excite and a 400 nm cut-off filter (Schott glass) used to collect light. Measurements of Cy3 fluorescence used 547 nm excitation and a 570 nm cut-off filter. In experiments described, the quoted concentrations are those in the mixing chamber, except where stated. Data were fitted to theoretical curves using the HiTech software or Grafit.

RecG⋅DNA(A40:B40) [2] = biological target: T1, RecG⋅DNA(A40:B40); assay: Quench-flow measurement of cleavage step (mantADP formation, HPLC)
Description: Single turnover measurements of the cleavage step and Pi release were performed with excess RecG⋅DNA over mantATP using conditions of the mantATP fluorescence measurements, described above. Quench-flow measurements allowed the formation of nucleoside diphosphate to be monitored with high time resolution. MantATP was rapidly mixed with excess RecG⋅DNA, and the reaction mix was quenched in acid at particular time points. The mix was then analyzed by HPLC to quantify mantATP and mantADP, giving the time course of mantADP formation (Figure 4A). This time course had similar kinetics to the slow phase of the mant fluorescence trace (0.2 s^−1), supporting the idea that this phase is mantADP formation.
These were carried out using a HiTech RQF-63 apparatus using different length loops and flow rates to age reactions before quenching using 10% perchloric acid. Samples were analyzed for the ratio of mantATP to mantADP by HPLC, as described.

RecG⋅DNA(A40:B40) [3] = biological target: T1, RecG⋅DNA(A40:B40); assay: Single turnover Pi release kinetics with MDCC-PBP
Description: Using the phosphate biosensor, MDCC-PBP [13], the kinetics of Pi release were measured under the same conditions (Figure 4A). Fitting the trace by a lag then a single exponential increase gave rate constants of 3.3 s^−1 and 0.21 s^−1. This rate constant for the lag was similar to the observed rate constant for binding at this concentration. The exponential increase had the same rate constant for the slow phase of the mant fluorescence and for the quench-flow measurement of mantADP formation. Thus Pi release occurs rapidly, following the rate-determining cleavage step.
as §2

RecG = biological target: T2, RecG (Thermotoga maritima, UniProt Q9WY48); assay: Double-mix stopped-flow: RecG⋅mantATP then mixed with DNA; settings: RecG + mantATP aged 1 s, then mixed with DNA junction (A40:B40)
T2 construct: made in house
T2 sequence (Q9WY48 1-780): T1 sequence (Q9WY48 1-780)
Description: as §1
As the cleavage step is so slow in the absence of DNA, a double-mix, stopped-flow experiment was performed in order to see if the biphasic increase in mant fluorescence could be separated into the individual processes of mantATP binding and hydrolysis. An excess of RecG was mixed with mantATP and this mix aged for 1 s to allow binding but not hydrolysis. This solution was then mixed with DNA. […] This rate was similar to that of the slower phase, measured above, consistent with this phase being due to DNA-induced hydrolysis.

[4] = 0.5 µM mantATP, 2.5 µM RecG, 5 µM DNA

In the case of `CNc1ccccc1C(=O)O[C@H]1[C@@H](O)[C@H](n2cnc3c(N)ncnc32)O[C@@H]1COP(=O)(O)OP(=O)(O)OP(=O)(O)O` [mantATP, 2′(3′)-O-(N-methylanthraniloyl)ATP], the “observed rate constant of the second increase in fluorescence” value (RecG⋅DNA(A40:B40) [1]; 0.5 µM mantATP, excess RecG⋅DNA, independent of RecG concentration) is reported as 0.22 (±0.05) s^−1, the “k +2 (cleavage step)” value (RecG⋅DNA(A40:B40) [1]; 20°C) is reported as 0.2 s⁻¹ and 0.22 s⁻¹ and the “initial small increase in fluorescence as part of overall change” value (RecG⋅DNA(A40:B40) [1]; excess RecG⋅DNA over mantATP) is reported as about 20%. The “fluorescence intensity increase of bound nucleotide relative to free nucleotide” value (RecG⋅DNA(A40:B40) [1]; excess RecG⋅DNA(A40:B40)) was 1.5 fold, the “rate of mantADP formation (quench-flow time course)” value (RecG⋅DNA(A40:B40) [2]; [4]) was 0.2 s⁻¹ and the “hydrolytic cleavage slower than ATP” value (RecG⋅DNA(A40:B40) [2]; mantATP vs ATP) was about 10 fold. The “Pi release: rate constant of exponential increase” value (RecG⋅DNA(A40:B40) [3]; [4]) was 0.21 s⁻¹, the “Pi release: rate constant of lag” value (RecG⋅DNA(A40:B40) [3]; [4]) was 3.3 s⁻¹ and the “k +3 (Pi release)” value (RecG⋅DNA(A40:B40) [3]; 20°C, Table 2 summary) was over 10 s⁻¹. For the same compound, the “rate constant of single exponential increase in mant fluorescence” value (RecG) was 0.3 (±0.04) s^−1.

Reference: paper PMC3368886, “ATPase Cycle and DNA Unwinding Kinetics of RecG Helicase” (PLoS ONE, 2012)
